IC50 data for 14 compounds are collected here from patent US20060281771A1, “SYNERGISTIC MODULATION OF FLT3 KINASE USING AMINOQUINOLINE AND AMINOQUINAZOLINE KINASE MODULATORS” (priority 2005, published 2006).

A word on the IC50: it is the midpoint of a concentration-inhibition curve. Lower therefore signals higher potency.

SMILES strings stand for the structures.

Test [1] deals with T1, isolated kinase domain of the human FLT3 receptor (a.a. 571-993) (Homo sapiens, UniProt P36888).
T1 construct: human FLT3 receptor (a.a. 571-993)
T1 sequence (P36888 571-993): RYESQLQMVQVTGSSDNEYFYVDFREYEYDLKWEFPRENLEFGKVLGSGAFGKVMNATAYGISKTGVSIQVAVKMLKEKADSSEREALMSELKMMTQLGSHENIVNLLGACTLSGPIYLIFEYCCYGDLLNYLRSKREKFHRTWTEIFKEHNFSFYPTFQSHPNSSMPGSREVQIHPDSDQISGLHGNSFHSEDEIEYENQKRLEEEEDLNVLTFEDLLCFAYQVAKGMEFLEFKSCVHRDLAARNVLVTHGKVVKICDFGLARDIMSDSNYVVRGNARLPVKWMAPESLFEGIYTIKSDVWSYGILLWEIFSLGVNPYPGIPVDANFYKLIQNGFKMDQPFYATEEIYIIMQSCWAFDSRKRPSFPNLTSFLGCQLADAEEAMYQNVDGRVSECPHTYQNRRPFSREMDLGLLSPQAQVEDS
As to the kind of experiment: FLT3 fluorescence polarization kinase assay. The test is classed as biochemical. The source says:
The FLT3 FP assay utilizes the fluorescein-labeled phosphopeptide and the anti-phosphotyrosine antibody included in the Panvera Phospho-Tyrosine Kinase Kit (Green) supplied by Invitrogen. When FLT3 phosphorylates polyGlu4Tyr, the fluorescein-labeled phosphopeptide is displaced from the anti-phosphotyrosine antibody by the phosphorylated poly Glu4Tyr, thus decreasing the FP value. […] The kinase reaction is stopped with the addition of EDTA. The fluorescein-labeled phosphopeptide and the anti-phosphotyrosine antibody are added and incubated for 30 minutes at room temperature.
All data points are an average of triplicate samples. Inhibition and IC50 data analysis was done with GraphPad Prism using a non-linear regression fit with a multiparamater, sigmoidal dose-response (variable slope) equation.

The test system of a further test is MV4-11 cells. As to the kind of experiment: Inhibition of MV4-11 cell proliferation (CellTiterGlo, 72 h). The test is classed as cell-based. The settings on record: Homo sapiens; 72 h growth inhibition. The procedure:
To assess the cellular potency of the FLT3 inhibitors of Formula I′, FLT3 specific growth inhibition was measured in the leukemic cell line MV4-11 (ATCC Number: CRL-9591). […] MV4-11 cells cannot grow and survive without active FLT3ITD.
To measure proliferation inhibition by test compounds, the luciferase based CellTiterGlo reagent (Promega), which quantifies total cell number based on total cellular ATP concentration, was used. Cells are plated at 10,000 cells per well in 100 ul of in RPMI media containing penn/strep, 10% FBS and 1 ng/ml GM-CSF or 1 ng/ml IL-3 for MV4-11 and Baf3 cells respectively.
Compound dilutions or 0.1% DMSO (vehicle control) are added to cells and the cells are allowed to grow for 72 hours at standard cell growth conditions (37° C., 5% CO2). For activity measurements in MV4-11 cells grown in 50% plasma, cells were plated at 10,000 cells per well in a 1:1 mixture of growth media and human plasma (final volume of 100 μL). To measure total cell growth an equal volume of CellTiterGlo reagent was added to each well, according to the manufacturer's instructions, and luminescence was quantified. Total cell growth was quantified as the difference in luminescent counts (relative light units, RLU) of cell number at Day 0 compared to total cell number at Day 3 (72 hours of growth and/or compound treatment). One hundred percent inhibition of growth is defined as an RLU equivalent to the Day 0 reading. Zero percent inhibition was defined as the RLU signal for the DMSO vehicle control at Day 3 of growth. All data points are an average of triplicate samples. […] Inhibition and IC50 data analysis was done with GraphPad Prism using a non-linear regression fit with a multiparamater, sigmoidal dose-response (variable slope) equation.
MV4-11 cells express the FLT3 internal tandem duplication mutation, and thus are entirely dependent upon FLT3 activity for growth. […] In contrast, the Baf3 cell proliferation is driven by the cytokine IL-3 and thus are used as a non-specific toxicity control for test compounds.
For orientation: In ATP-based viability assays light output follows the ATP content of the culture.

The target in test [2] is T2, wild-type FLT3 phosphorylation in Baf3 FLT3 cells (Homo sapiens, UniProt P36888).
T2 construct: host or cells: Baf3 (murine B cell lymphoma line)
T2 sequence (P36888 27-993): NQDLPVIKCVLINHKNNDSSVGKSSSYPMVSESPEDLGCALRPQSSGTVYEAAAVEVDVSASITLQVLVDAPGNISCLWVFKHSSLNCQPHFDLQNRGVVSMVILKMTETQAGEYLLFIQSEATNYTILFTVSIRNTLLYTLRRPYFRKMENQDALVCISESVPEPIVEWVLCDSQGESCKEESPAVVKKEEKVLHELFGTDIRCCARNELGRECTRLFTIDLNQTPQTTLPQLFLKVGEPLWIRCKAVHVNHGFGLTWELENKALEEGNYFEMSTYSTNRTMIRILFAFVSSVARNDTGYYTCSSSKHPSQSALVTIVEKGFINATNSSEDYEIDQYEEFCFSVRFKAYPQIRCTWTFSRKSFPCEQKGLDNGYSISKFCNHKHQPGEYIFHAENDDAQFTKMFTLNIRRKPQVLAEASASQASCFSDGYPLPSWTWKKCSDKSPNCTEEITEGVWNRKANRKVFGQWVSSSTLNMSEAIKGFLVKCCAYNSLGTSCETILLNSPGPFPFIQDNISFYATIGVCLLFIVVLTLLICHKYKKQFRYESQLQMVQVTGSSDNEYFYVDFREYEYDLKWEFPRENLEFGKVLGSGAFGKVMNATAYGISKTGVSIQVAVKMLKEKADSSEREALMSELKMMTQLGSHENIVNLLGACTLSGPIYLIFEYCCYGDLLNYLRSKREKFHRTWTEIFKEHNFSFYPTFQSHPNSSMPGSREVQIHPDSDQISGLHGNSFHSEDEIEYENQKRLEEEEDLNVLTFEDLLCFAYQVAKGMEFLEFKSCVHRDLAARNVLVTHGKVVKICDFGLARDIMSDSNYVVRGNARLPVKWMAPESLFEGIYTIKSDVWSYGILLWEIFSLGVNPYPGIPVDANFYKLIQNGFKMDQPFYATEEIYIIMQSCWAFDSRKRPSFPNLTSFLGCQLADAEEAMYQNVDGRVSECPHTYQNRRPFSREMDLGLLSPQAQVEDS
As to the kind of experiment: Cell-based FLT3 receptor ELISA. As to conditions: FLT ligand-induced FLT3 phosphorylation. As for the experimental part:
Specific cellular inhibition of FLT ligand-induced wild-type FLT3 phosphorylation was measured in the following manner: Baf3 FLT3 cells overexpressing the FLT3 receptor were obtained from Dr. Michael Heinrich (Oregon Health and Sciences University). The Baf3 FLT3 cell lines were created by stable transfection of parental Baf3 cells (a murine B cell lymphoma line dependent on the cytokine IL-3 for growth) with wild-type FLT3. Cells were selected for their ability to grow in the absence of IL-3 and in the presence of FLT3 ligand.
Baf3 cells were maintained in RPMI 1640 with 10% FBS, penn/strep and 10 ng/ml FLT ligand at 37° C., 5% CO2. To measure direct inhibition of the wild-type FLT3 receptor activity and phosphorylation a sandwich ELISA method was developed similar to those developed for other RTKs (see Sadick, M D, Sliwkowski, M X, Nuijens, A, Bald, L, Chiang, N, Lofgren, J A, Wong W L T. Analysis of Heregulin-Induced ErbB2 Phosphorylation with a High-Throughput Kinase Receptor Activation Enzyme-Linked Immunsorbent Assay, Analytical Biochemistry. 1996; 235:207-214 and Baumann C A, Zeng L, Donatelli R R, Maroney A C. Development of a quantitative, high-throughput cell-based enzyme-linked immunosorbent assay for detection of colony-stimulating factor-1 receptor tyrosine kinase inhibitors. J Biochem Biophys Methods. 2004; 60:69-79.). 200 μL of Baf3FLT3 cells (1×10^6/mL) were plated in 96 well dishes in RPMI 1640 with 0.5% serum and 0.01 ng/mL IL-3 for 16 hours prior to 1 hour compound or DMSO vehicle incubation. Cells were treated with 100 ng/mL Flt ligand (R&D Systems Cat# 308-FK) for 10 min. at 37° C. Cells were pelleted, washed and lysed in 100 ul lysis buffer (50 mM Hepes, 150 mM NaCl, 10% Glycerol, 1% Triton-X-100, 10 mM NaF, 1 mM EDTA, 1.5 mM MgCl2, 10 mM NaPyrophosphate) supplemented with phosphatase (Sigma Cat# P2850) and protease inhibitors (Sigma Cat #P8340). Lysates were cleared by centrifugation at 1000×g for 5 minutes at 4° C. Cell lysates were transferred to white wall 96 well microtiter (Costar #9018) plates coated with 50 ng/well anti-FLT3 antibody (Santa Cruz Cat# sc-480) and blocked with SeaBlock reagent (Pierce Cat#37527). Lysates were incubated at 4° C. for 2 hours. Plates were washed 3× with 200 ul/well PBS/0.1% Triton-X-100. Plates were then incubated with 1:8000 dilution of HRP-conjugated anti-phosphotyrosine antibody (Clone 4G10, Upstate Biotechnology Cat#16-105) for 1 hour at room temperature. Plates were washed 3× with 200 ul/well PBS/0.1% Triton-X-100. Signal detection with Super Signal Pico reagent (Pierce Cat#37070) was done according to manufacturer's instruction with a Berthold microplate luminometer. All data points are an average of triplicate samples. […] Inhibition and IC50 data analysis was done with GraphPad Prism using a non-linear regression fit with a multiparamater, sigmoidal dose-response (variable slope) equation.

Consider `COc1cc2ncc(C#N)c(N3CCC(OC(=O)Nc4ccc(OC(C)C)cc4)CC3)c2cc1OC` [Compound 40, (4-Isopropoxy-phenyl)-carbamic acid 1-(3-cyano-6,7-dimethoxy-quinolin-4-yl)-piperidin-4-yl ester], for which the IC50 in test [1] was greater than 10000 nM. On to `CC(C)Oc1ccc(NC(=O)OC2CCN(c3ccnc4ccccc34)C2)cc1` (stereo not drawn) [Compound 39], for which the IC50 in test [1] is 7140 nM; with MV4-11 cells, greater than 10000 nM. The corresponding values for `CC(C)c1ccc(NC(=O)OC2CCN(c3ncnc4ccccc34)C2)cc1` (stereo not drawn) [Compound 24, (4-Isopropyl-phenyl)-carbamic acid 1-quinazolin-4-yl-pyrrolidin-3-yl ester] are 290 nM and 220 nM. Taken in the same sequence, the figures for `CC(C)c1ccc(NC(=O)NC2CCN(c3ccnc4ccccc34)C2)cc1` (stereo not drawn) [Compound 27, (4-Isopropyl-phenyl)-3-(1-quinolin-4-yl)-pyrrolidin-3-yl-urea] were 457 nM and 5300 nM.

Take `CC(C)Oc1ccc(NC(=O)NC2CCN(c3ccnc4ccccc34)C2)cc1` (stereo not drawn) [Compound 38, (4-Isopropoxy-phenyl)-3-(1-quinolin-4-yl)-pyrrolidin-3-yl-urea]: the half-inhibitory concentration (IC50) is 3150 nM in test [1] and greater than 3000 nM in the test on MV4-11 cells.

Take `COc1cc2ncnc(N3CCC(OC(=O)Nc4ccc(OC5CCC5)nc4)CC3)c2cc1OC` [Compound 11, (6-Cyclobutoxy-pyridin-3-yl)-carbamic acid 1-(6,7-dimethoxy-quinazolin-4-yl)-piperidin-4-yl ester]: the IC50 in test [1] stood at 28 nM; in the test with MV4-11 cells, 71 nM.

On to `CC(C)c1ccc(NC(=O)NC2CCN(c3ncnc4cc(F)ccc34)CC2)cc1` [Compound 72, 1-[1-(7-Fluoro-quinazolin-4-yl)-piperidin-4-yl]-3-(4-isopropyl-phenyl)-urea], for which the IC50 with MV4-11 cells came to 245 nM; in test [2], 30 nM. For `COc1cc2ncnc(N3CCC(C(=O)Nc4cccc(OC(C)C)c4)CC3)c2cc1OC` [Compound 30, 1(-6,7-Dimethoxy-quinazolin-4-yl)-piperidine-4-carboxylic acid (3-isopropoxy-phenyl)-amide], the values for the 50% inhibitory concentration (IC50) (in test [1]; in the test with MV4-11 cells) were 563 nM and 2310 nM, respectively. The corresponding values for `CC(C)c1ccc(NC(=O)OC2CCN(c3ccnc4ccccc34)CC2)cc1` [Compound 10] are 26 nM and 1100 nM. `COc1cc2ncnc(N3CCC(NC(=O)Nc4ccc(C(C)C)cc4)CC3)c2cc1OC` [Compound 66, 1-[1-(6,7-Dimethoxy-quinazolin-4-yl)-piperidin-4-yl]-3-(4-isopropyl-phenyl)-urea]: the IC50 (in the test on MV4-11 cells; in test [2]) was 1 nM in each case.

`COc1cc2ncnc(N3CCC(COC(=O)Nc4ccc(C(C)C)cc4)CC3)c2cc1OC` [Compound 22, (4-Isopropyl-phenyl)-carbamic acid 1-(6,7-dimethoxy-quinazolin-4-yl)-piperidin-4-ylmethyl ester]: the IC50 is 1700 nM in the test with MV4-11 cells and 82 nM in test [2].

Regarding `CC(C)c1ccc(NC(=O)OC2CCN(c3ccnc4ccccc34)C2)cc1` (stereo not drawn) [Compound 34], the IC50 turned out to be 1050 nM in test [1] and 6400 nM in the test with MV4-11 cells.

For `COc1ccc2ncnc(N3CCC(NC(=O)Nc4ccc(C(C)C)cc4)CC3)c2c1` [Compound 64, 1-(4-Isopropyl-phenyl)-3-[1-(6-methoxy-quinazolin-4-yl)-piperidin-4-yl]-urea], the IC50 with MV4-11 cells was 16 nM; in test [2], 11 nM. The corresponding values for `CC(C)c1ccc(NC(=O)NC2CCN(c3ncnc4cc(OCCCN5CCN(C)CC5)ccc34)CC2)cc1` [Compound 75, 1-(4-Isopropyl-phenyl)-3-(1-{7-[3-(4-methyl-piperazin-1-yl)-propoxy]-quinazolin-4-yl}-piperidin-4-yl)-urea] are 1 nM and 1 nM.
